Values of other authors, collected in article PMC7791840, “The R-enantiomer of ketorolac reduces ovarian cancer tumor burden in vivo” (BMC Cancer, 2021).

What was measured:
Rac1 = tested on: Rac1; design: method as in earlier work; settings: cell-based assays, ovarian tumor cells; ref 23 (R-ketorolac), 27 (S-ketorolac); cited from earlier work
COX-1 = tested on: COX-1; design: method as in PMID 26558612, PMID 10027870; settings: cited from earlier work
Cdc42 = tested on: Cdc42; design: method as in earlier work; settings: cell-based assays, ovarian tumor cells; ref 23 (R-ketorolac), 27 (S-ketorolac); cited from earlier work
COX-2 = tested on: COX-2; design: method as in PMID 26558612, PMID 10027870; settings: cited from earlier work
[1] = design: method as in PMID 8809637; settings: mice; cited from earlier work
[2] = tested on: HEY8 ovarian cancer xenografts; design: method as in PMID 25595279; settings: cited from earlier work

| Structure (SMILES) | IC50 (Rac1) | IC50 (COX-1) | IC50 (Cdc42) | IC50 (COX-2) | Conversion of S-enantiomer to R-enantiomer [1] | Number of tumor nodules [2] | Tumor weight [2] |
| --- | --- | --- | --- | --- | --- | --- | --- |
| O=C(c1ccccc1)c1ccc2n1CC[C@@H]2C(=O)O [S-ketorolac] | > 100000 nM | 460 nM | > 100000 nM | 1460 nM | significantly converted to the R-enantiomer in mice | – | – |
| O=P(O)(O)C(O)(Cn1ccnc1)P(=O)(O)O [zoledronic acid, Zoledronic acid] | – | – | – | – | – | decreased | decreased |
